Data as given in patent US20060095978A1, “Screening assay” (priority 2002, published 2006).

What was measured:
Type in all cases: in vivo, mouse
IL-1α = assay: Serum IL-1α in DO11.10 mice primed with OVA-peptide and challenged with LPS; settings: challenged with the highest LPS dose
Experimental: Animals are provided as described in Example 2a).
b) Administration of OVA323-339 (=OVA-peptide) and LPS Groups of six DO11.10 mice receive i.p. 30 μg of OVA323-339 peptide (98% purity, pi Chem R&D, Graz Austria) in 0.2 ml 0.9% saline per mouse. Control mice are injected i.p. with the same amount of saline.
18 hours later the mice are challenged i.p. with 100, 300 or 500 μg LPS (E. coli 0111: B4 Sigma Vienna, Austria). At 2, 4 and 6 hours after the LPS administration about 200 μl of blood are collected by puncture of the retro-orbital plexus under ether anesthesia. The sera are collected and stored frozen at −20° until analyzed.
Murine IL-1α, IL-1β and TNF-α serum levels are determined by ELISAs (IL-1α and TNF-α, Bender MedSystems, Vienna Austria; IL-1β, Quantikine R&D Systems, Minneapolis, Minn.). Results are expressed as pg per ml serum. Differences in the serum cytokines concentrations between the different experimental groups are examined for statistical significance by the Mann-Whitney U test, two tailed. Results are expressed as the mean±SEM. p<0.05 is regarded as significant.
The injection of OVA-peptide at doses between 3 and 90 μg per mouse increases serum concentrations of IFN-γ as well as other cytokines, such as IL-4 and IL-2, in a dose/amount-dependent way. […] The serum IL-1α levels are expressed as mean pg per ml serum±SEM.

IL-2 = assay: Serum IL-2 in OVA323-339 stimulated DO11.10 mice (ELISA)
Experimental: (§1) Groups of six, 8-10 weeks old, male or female DO11.10 mice weighing between 20-22 g are obtained as described in Murphy K. M. et al. 1990, Science 250:1720-1722. The animals are maintained in Microvent positive air supply cages (22±1° C., 55±5% relative humidity, 50-70 changes of fresh air/hour and 12 hours day and night cycle) with sawdust bedding. Standard laboratory mouse chow (SNIFF, Soest, Germany) and drinking water is given ad libidum. The animals are used for the study after an adaptation period of 10-14 days and grouped (6 per group) in type II Macrolon cages one day before the experiment.
(§2) Groups of six DO11.10 mice are i.p. injected with 10 μg of ovalbumin (OVA, Sigma, St. Louis, USA) absorbed to 2 mg of Al(OH)3 (Alu Gel S; 2% Al(OH)3, Serva, Heidelberg, FRG) and diluted with saline to a volume of 0.2 ml or various amounts (1, 3, 10, 30, or 90 μg per mouse) of alum-precipitated OVA323-339 peptide (98% purity, piChem R&D, Graz Austria) in 0.2 ml on days 0 and 14. Before and at different time points on days 0 and 14 after the OVA or OVA323-339 peptide administration about 200 μl of blood are collected by puncture of the retro-orbital plexus under ether anesthesia.
The sera are collected and stored frozen at −20° C. until analyzed.
The Neoral solution is diluted further with tap water. Doses of 20, 40, and 80 mg/kg b.w. are administered in a volume of 0.2 ml. Animals in the control group receive the solvent alone.
Murine IL-2, IFN-γ and IL-4 are analyzed by immunoassays (Quantikine R&D Systems, Minneapolis, Minn., USA). Results are expressed as pg per ml serum expressed as mean±SEM pg of the cytokine indicated per ml serum. Test and control groups are evaluated by Dunn test by Kruskall-Wallis One Way Anova using the SigmaStat® program.
Animals of the control group are injected with alum. Blood is collected before and at 2 hours after the peptide injection. IL-2 is determined in the sera by an ELISA. Results are expressed as mean pg per ml serum±SEM.
Blood is collected 2 hours later and IFN-γ, IL-4 and IL-2 levels are determined in the sera by ELISAs. Results are expressed as mean pg per ml serum±SEM.

IFN-γ = assay: Serum IFN-γ in OVA/OVA323-339 stimulated DO11.10 mice (ELISA); settings: for IFN-γ level in pg/ml serum on day 0 after 0 hours: 0 hours (before injection); for increase of INF-γ serum concentration: 90 μg per mouse
Experimental: as §1, §2
The sera are collected and stored frozen at −20° C. until analyzed. […]
Murine IL-2, IFN-γ and IL-4 are analyzed by immunoassays (Quantikine R&D Systems, Minneapolis, Minn., USA). Results are expressed as pg per ml serum expressed as mean±SEM pg of the cytokine indicated per ml serum. Test and control groups are evaluated by Dunn test by Kruskall-Wallis One Way Anova using the SigmaStat® program. […]
Mice of the control group are injected with alum. Blood is collected before and at 2, 4, and 6 hours after the first peptide injection. INF-γ is determined in the sera by an ELISA. Results are expressed as mean pg per ml serum±SEM. […]

For “OVA323-339: peptide derived from chicken ovalbumin containing amino acids from position 323 to 339 (KISQAVHAAHAEINEAG; UniProt P01012 323-339, looked up, fragment)”, the “effect of OVA-peptide priming on IL-1α serum levels” value (IL-1α) was “rapid increase”, the “IL-2 levels in pg/ml serum on day 0 after 2 hours” value (“IL-2 levels in pg/ml serum” for short) (IL-2; 3 μg OVA323-339 i.p.) was 327.513 ± 76.331 pg/mL and the “IL-2 levels in pg/ml serum” value (IL-2; 10 μg OVA323-339 i.p.) was 2866.966 ± 361.613 pg/mL. For the same substance, the “IL-2 levels in pg/ml serum” value (IL-2; 30 μg OVA323-339 i.p.) was 2926.303 ± 381.536 pg/mL, the “IL-2 levels in pg/ml serum” value (IL-2; 90 μg OVA323-339 i.p.) was 4841.034 ± 108.352 pg/mL and the “IFN-γ level in pg/ml serum on day 0 after 0 hours” value (“IFN-γ level … after 0 hours” for short) (IFN-γ; 1 μg OVA323-339 i.p.) was 11.181 ± 1.288 pg/mL. The “IFN-γ level in pg/ml serum on day 0 after 2 hours” value (“IFN-γ level … after 2 hours” for short) (IFN-γ; 1 μg OVA323-339 i.p.) was 18.047 ± 3.944 pg/mL, the “IFN-γ level in pg/ml serum on day 0 after 4 hours” value (from here on “IFN-γ level … after 4 hours”) (IFN-γ; 1 μg OVA323-339 i.p.) was 41.034 ± 12.394 pg/mL and the “IFN-γ level in pg/ml serum on day 0 after 6 hours” value (from here on “IFN-γ level … after 6 hours”) (IFN-γ; 1 μg OVA323-339 i.p.) was 15.925 ± 4.594 pg/mL. For the same substance, the “IFN-γ level … after 0 hours” value (IFN-γ; 3 μg OVA323-339 i.p.) was 8.230 ± 1.430 pg/mL, the “IFN-γ level … after 2 hours” value (IFN-γ; 3 μg OVA323-339 i.p.) was 62.724 ± 7.939 pg/mL and the “IFN-γ level … after 4 hours” value (IFN-γ; 3 μg OVA323-339 i.p.) was 63.023 ± 12.462 pg/mL. For the same substance, the “IFN-γ level … after 6 hours” value (IFN-γ; 3 μg OVA323-339 i.p.) was 25.962 ± 8.858 pg/mL, the “increase of serum INF-γ levels compared to alum control” value (IFN-γ; 3 μg, at 2 and 4 hours) was “about 11 fold” and the “IFN-γ level … after 0 hours” value (IFN-γ; 10 μg OVA323-339 i.p.) was 0.374 ± 0.324 pg/mL. The “IFN-γ level … after 2 hours” value (IFN-γ; 10 μg OVA323-339 i.p.) was 65.927 ± 23.147 pg/mL, the “IFN-γ level … after 4 hours” value (IFN-γ; 10 μg OVA323-339 i.p.) was 202.260 ± 48.410 pg/mL and the “IFN-γ level … after 6 hours” value (IFN-γ; 10 μg OVA323-339 i.p.) was 24.047 ± 9.455 pg/mL. For the same substance, the “rise in INF-γ serum levels compared to alum alone” value (IFN-γ; 10 μg OVA323-339 peptide 2 weeks after 10 μg OVA) was roughly 25 fold, the “IFN-γ level … after 0 hours” value (IFN-γ; 30 μg OVA323-339 i.p.) was 3.988 ± 0.700 pg/mL and the “IFN-γ level … after 2 hours” value (IFN-γ; 30 μg OVA323-339 i.p.) was 207.727 ± 62.093 pg/mL. The “IFN-γ level … after 4 hours” value (IFN-γ; 30 μg OVA323-339 i.p.) was 176.807 ± 79.268 pg/mL, the “IFN-γ level … after 6 hours” value (IFN-γ; 30 μg OVA323-339 i.p.) was 187.325 ± 62.370 pg/mL and the “increase of serum IFN-γ levels” value (IFN-γ; 30 μg per mouse, at 2, 4 and 6 hours) was 32-38 fold. The “IFN-γ level … after 2 hours” value (IFN-γ; 90 μg OVA323-339 i.p.) was 407.899 ± 106.513 pg/mL, the “IFN-γ level … after 4 hours” value (IFN-γ; 90 μg OVA323-339 i.p.) was 413.925 ± 65.247 pg/mL and the “IFN-γ level … after 6 hours” value (IFN-γ; 90 μg OVA323-339 i.p.) was 514.918 ± 72.758 pg/mL. The “increase of INF-γ serum concentration” value (IFN-γ; at 2 and 4 hours) was 75 fold, the “increase of INF-γ serum concentration” value (IFN-γ; at 6 hours) was 94 fold and the “increase of serum IFN-γ levels” value (IFN-γ; 10 g (printed) of peptide, at 4 hours) was “about 40 fold”. For the same substance, the “increase in IFN-γ levels in sera” value (IFN-γ; first injection of 10 μg peptide, 3 hours after) was 50 fold, the “change in serum INF-γ levels” value (IFN-γ; primary stimulation, 1 μg per mouse, only at 4 hours) was “small increase” and the “rise of INF-γ levels after second sensitization” value (IFN-γ; second sensitization, same dose (10 μg) of peptide) was “same magnitude”.
